# Measurements taken from US20170065670A1, “METHODS FOR TREATING IMMUNE MEDIATED NEUROLOGICAL DISEASES” (Trinity Therapeutics, Inc., priority 2005, published 2017).
# Assays:
# [1] = system: human C1q; test: Reverse ELISA: inhibition of PAP immune complex binding to C1q coated plates; conditions: summary of Table 1
# Source text: (§1) For this reason, a “reverse ELISA” technique was used to assess binding of the Fc region to ligands that bind to immune complexed IgG Fc. In these assays, the enzyme (HRP) was not covalently conjugated to the Fc portion of the secondary antibody. Rather, a preformed immune complex of peroxidase-rabbit (or mouse) anti-peroxidase IgG (“PAP” complex) was used. […] In the reverse ELISA system, an Fc CH2-CH3 cleft binding ligand (e.g., purified human C1q) was bound to microwell plates. In the absence of competitor, PAP complexes bound to the immobilized ligand and the reaction between HRP and its substrate produced a signal. This signal was reduced by polypeptides and compounds, such as those provided herein, that inhibited PAP binding to the immobilized ligand.
# PAP complexes were formed by mixing 2 μl of rabbit anti-peroxidase (Sigma Chemicals, St. Louis, Mo.) with 50 μl of peroxidase (Sigma-Aldrich, St. Louis, Mo.) in 1 ml distilled water. PAP (100 μl) were pre-incubated with 100 μl of peptide or human C1q (Quidel Corp., San Diego, Calif.) for one hour. The C1q/PAP and peptide/PAP mixtures (100 μl) were then incubated with C1q coated plates for 30 minutes. After washing, plates were incubated with 2-2′-azinobis-3-ethylbenzthiazoline-6-sulfonate (ATBS; Quidel Corp.) for 15 minutes and read at 405 nm.
# [2] = system: FcγIIa; test: Reverse ELISA: inhibition of PAP immune complex binding to FcγIIa coated plates; conditions: summary of Table 2, FcR overall (FcγIIa, FcγIIb, FcγIII)
# Source text: as §1
# Once the reverse ELISA protocol was established using the C1q assay, the assay was redesigned using FcγIIa, FcγIIb and FcγIII in place of C1q. Highly purified FcγIIa, FcγIIb and FcγIII were immunoadsorbed onto plastic microwells. […]
# Falcon microtiter plates were coated with 1:10 dilutions of highly purified FcγIIa, FcγIIb and FcγIII and incubated for 24 hours. […] After washing, plates were incubated with ABTS substrate for 15 minutes and read at 405 nm.
# [3] = system: human wtSOD1; test: Reverse ELISA: inhibition of immune complexed IgG (PAP) binding to wt SOD1; conditions: for wt SOD1 (read at 405 nm): plates coated 24 h with 0.8 μg/ml human wtSOD1, PAP/peptide 60 min, lower = more inhibition, positive control 2.900; for inhibition of wt SOD1 binding to PAP (in words): summary of Table 3
# Source text: as §1
# (§2) PAP complexes were formed as described in Example 2. PAP (100 μl) were pre-incubated with 100 μl of peptide for one hour, and control (200 μl of PAP) also was incubated for one hour. 100 μl of either PAP or PAP/peptide was added to Falcon microtiter plates that had been coated for 24 hours with either 0.8 μg/ml human wtSOD1 (Sigma-Aldrich) or apo (non Cu, Zn containing) monomeric mutant SOD1 C57S (mSOD1C57S). The PAP or peptide/PAP mixtures (100 μl) were added after one hour to either wt SOD1 or mSOD1C57S coated plates for 60 minutes. After washing, plates were incubated with ATBS for 15 minutes and read at 405 nm.
# [4] = system: apo (non Cu, Zn containing) monomeric mutant SOD1 C57S (mSOD1C57S); test: Reverse ELISA: inhibition of immune complexed IgG (PAP) binding to mutant SOD1; conditions: for mSOD1C57S (read at 405 nm): plates coated 24 h with mSOD1C57S, PAP/peptide 60 min, lower = more inhibition, positive control […]; for inhibition of mSOD1C57S binding to PAP (in words): summary of Table 3
# Source text: as §1, §2
# [5] = system: human wt α-synuclein; test: Reverse ELISA: inhibition of immune complexed IgG (PAP) binding to wt α-synuclein
# Source text: as §1
# PAP complexes were formed mixing 2 μl of rabbit anti-peroxidase (Sigma) with 50 μl of peroxidase (Sigma) in 1 ml distilled water. PAP (100 μl) were pre-incubated with 100 μl of peptide for one hour. Control PAP (200 μl) also was incubated for one hour. 100 μl of either PAP or PAP/peptide was added to Falcon microtiter plates that had been coated for 24 or 48 hours with 167 μg/ml human wt α-synuclein (Sigma-Aldrich), and the plates were incubated for 60 minutes. After washing, plates were incubated with ATBS for 30 minutes and then read at 405 nm.
# [6] = system: human wt tau protein (441 residues); test: Reverse ELISA: inhibition of immune complexed IgG (PAP) binding to wt tau
# Source text: as §1
# PAP complexes were formed by mixing 2 μl of rabbit anti-peroxidase with 50 μl of peroxidase in 1 ml distilled water. PAP (100 μl) were pre-incubated with 100 μl of peptide for one hour. Control PAP (200 μl) also was incubated for one hour. 100 μl of either PAP or PAP/peptide was added to Falcon microtiter plates that had been coated for 24 hours with 16.7 μg/ml human wt tau protein (441 residues; Sigma-Aldrich). The PAP or peptide/PAP mixtures (100 μl) were added after one hour to tau coated plates and incubated for 60 minutes. After washing, plates were incubated with ATBS for 15 minutes, and read at 405 nm.
# [7] = system: human wt β amyloid peptide 1-40; test: Reverse ELISA: inhibition of immune complexed IgG (PAP) binding to wt β-amyloid peptide 1-40; conditions: summary of Table 7
# Source text: as §1
# Different fragments of the Aβ peptide contribute to the amyloid plaques pathognomic for AD, and these Aβ fragments appear to stimulate microglial activation and subsequent AD neuropathology. Thus, experiments were conducted to test Aβ 1-40 for binding to immune complexes, and to determine whether the inhibitors described herein can inhibit binding of PAP immune complexes to Aβ peptide. PAP complexes were prepared by mixing 2 μl of rabbit anti-peroxidase with 50 μl of peroxidase in 1 ml distilled water. […] After washing, plates were incubated with ATBS for 15 minutes and read at 405 nm.
# [8] = molecular target: Highly purified FcγIIa (UniProt P12318); test: reverse ELISA: PAP without peptide on FcγIIa-coated plate
# [9] = molecular target: Human wt α-synuclein (Sigma-Aldrich) (human) (UniProt P37840); test: reverse ELISA: PAP without peptide on α-synuclein-coated plate (24 h coating)
# [10] = molecular target: Preformed immune complex of peroxidase-rabbit anti-peroxidase IgG (PAP complex) (horseradish) (UniProt P00433); test: reverse ELISA competition: peptide pre-incubated with PAP; competitor: immobilised mSOD1C57S
# [11] = molecular target: Preformed immune complex of peroxidase-rabbit anti-peroxidase IgG (PAP complex) (horseradish) (UniProt P00433); test: reverse ELISA competition: peptide pre-incubated with PAP; competitor: immobilised human wt SOD1
# [12] = molecular target: Preformed immune complex of peroxidase-rabbit anti-peroxidase IgG (PAP complex) (horseradish) (UniProt P00433); test: reverse ELISA competition: peptide pre-incubated with PAP; competitor: immobilised human wt α-synuclein, plate coated 24 h
# [13] = molecular target: Preformed immune complex of peroxidase-rabbit anti-peroxidase IgG (PAP complex) (horseradish) (UniProt P00433); test: reverse ELISA competition: peptide pre-incubated with PAP; competitor: immobilised human wt α-synuclein, plate coated 48 h
# Preformed immune complex of peroxidase-rabbit anti-peroxidase IgG (PAP complex) (horseradish), sequence (P00433 31-338, one chain of several): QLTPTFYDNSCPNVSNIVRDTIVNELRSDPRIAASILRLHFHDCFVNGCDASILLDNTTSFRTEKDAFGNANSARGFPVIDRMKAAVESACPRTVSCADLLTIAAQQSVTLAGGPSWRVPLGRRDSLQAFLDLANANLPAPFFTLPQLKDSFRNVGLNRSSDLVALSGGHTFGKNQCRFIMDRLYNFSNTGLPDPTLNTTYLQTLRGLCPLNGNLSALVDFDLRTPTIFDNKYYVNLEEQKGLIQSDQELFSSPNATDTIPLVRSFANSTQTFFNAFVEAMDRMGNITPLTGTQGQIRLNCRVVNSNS
# Preformed immune complex of peroxidase-rabbit anti-peroxidase IgG (PAP complex), sequence (P00433 31-338, one chain of several): as above
# Highly purified FcγIIa, sequence (P12318 34-217 limits assumed): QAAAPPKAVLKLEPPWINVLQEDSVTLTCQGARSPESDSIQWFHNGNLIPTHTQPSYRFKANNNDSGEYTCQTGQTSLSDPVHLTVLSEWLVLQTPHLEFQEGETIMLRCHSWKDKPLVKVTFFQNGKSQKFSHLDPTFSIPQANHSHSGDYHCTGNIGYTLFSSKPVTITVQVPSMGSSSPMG
molecule,measurement,setting,value
APPCARHLGELVWCT,inhibition of C1q binding (rank in words),[1],next best result
APPDCAWHLGELVWCT,inhibition of C1q binding (rank in words),[1],greatest inhibition
same,inhibition of FcR binding to PAP (rank in words),[2],greatest inhibition
same,wt SOD1 (read at 405 nm),[3],0.277
same,inhibition of wt SOD1 binding to PAP (in words),[3],greatest inhibition
same,inhibition of wt SOD1 binding to PAP (in words),[3]; listed as peptide 16,best inhibition
same,mSOD1C57S (read at 405 nm),[4],0.226
same,inhibition of mSOD1C57S binding to PAP (in words),[4],greatest inhibition
same,inhibition of mSOD1C57S binding to PAP (in words),[4]; listed as peptide 16,best inhibition
same,Wt α-synuclein (read at 405 nm),"[5]; plates coated 24 h with 167 μg/ml α-synuclein, lower = more inhibition, positive control 1.433, substrate only 0.061",0.088
same,inhibition of α-synuclein binding to PAP (rank in words),[5]; summary of Table 5,greatest inhibition
same,Wt tau protein (read at 405 nm),"[6]; plates coated 24 h with 16.7 μg/ml tau, lower = more inhibition, positive control 0.695, substrate only 0.060",0.059
same,inhibition of human wt tau protein binding to PAP (rank in words),[6]; summary of Table 6,greatest inhibition
DCAWHLGELVWCT,wt SOD1 (read at 405 nm),[3],0.292
same,inhibition of wt SOD1 binding to PAP (in words),[3]; listed as peptide 2,inhibited
same,mSOD1C57S (read at 405 nm),[4],0.592
same,inhibition of mSOD1C57S binding to PAP (in words),[4]; listed as peptide 2,inhibited
same,inhibition of human wt β amyloid peptide binding to PAP (rank in words),[7],greatest inhibition
Preformed immune complex of peroxidase-rabbit anti-peroxidase IgG (PAP complex) (from UniProt P00433 31-338),OD 405 nm,[8],1.6 OD
same,OD 405 nm,[9],1.43 OD
APPDCAWHLGELVWCT [Peptide … (SEQ ID NO:16)],OD 405 nm,[10],0.226 OD
same,OD 405 nm,[11],0.277 OD
same,OD 405 nm,[12],0.088 OD
same,OD 405 nm,[13],0.136 OD
